From US20200031778A1, “NOVEL 5-SUBSTITUTED IMIDAZOLYLMETHYL DERIVATIVES” (Bayer CropScience Aktiengesellschaft, priority 2016, published 2020)

Experiment: Log P by HPLC on reversed phase columns (EEC directive 79/831 Annex V.A8; methods [a], [b], [c])
Format: physicochemical
How it was run: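 Reversed-phase HPLC with LC-UV detection, 10→95% acetonitrile linear gradient; aqueous eluent 0.1% formic acid [a], 0.001 M ammonium acetate, neutral [b], or 0.1% phosphoric acid [c]. Calibrated against C3–C16 alkan-2-ones of known Log P by retention-time linear interpolation; multiple values within a method separated by "+".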
For `OC(Cn1cncc1Br)c1ccc(Oc2ccc(I)cc2)cc1Cl` (stereo not shown) [I-28], the LogP was 2.88^[a]. In the case of `CC(O)(Cn1cncc1Cl)c1ccc(Oc2ccc(Cl)cc2)nc1C(F)(F)F` (stereo not shown) [I-180], the LogP is reported as 2.63^[a]. In the case of `C[Si](C)(C)C#CC(O)(CC1CC1)Cn1cncc1C#N` (stereo not shown) [I-454], the LogP is reported as 2.70^[a]. For `N#Cc1cncn1CC(O)(c1cc(F)c(Cl)c(F)c1)C1(F)CC1` (stereo not shown) [I-475], the LogP was 2.54^[a]. With `N#Cc1cncn1CC(O)(c1ccccc1C(F)(F)F)C1(F)CC1` (stereo not shown) [I-348] the LogP was 2.28^[a]. With `CC(C)CC(O)(Cn1cncc1C#N)c1ccccc1C(F)(F)F` (stereo not shown) [I-343] the LogP was 2.88^[a]. With `CCOC(Cn1cncc1Br)c1ccc(Oc2ccc(Br)cc2)cc1Br` (stereo not shown) [I-57] the LogP was 4.16^[a]. In the case of `N#Cc1cncn1CC(O)(c1cc(F)c(F)cc1Br)C1(F)CC1` (stereo not shown) [I-688], the LogP is reported as 2.36^[a]. With `CC(C)C(O)(Cn1cncc1C#N)c1ccc(F)cc1Br` (stereo not shown) [I-424] the LogP was 2.69^[a]. In the case of `Cc1ccc(C(O)(Cn2cncc2C#N)C2(Cl)CC2)cc1C1(C(F)(F)F)CC1` (stereo not shown) [I-212], the LogP is reported as 3.27^[a]. With `CC(O)(Cn1cncc1C#N)c1cnc(Oc2ccc(C(F)(F)F)cc2)cc1C(F)(F)F` (stereo not shown) [I-218] the LogP was 3.23^[a]. In the case of `CC(O)(Cn1cncc1Br)c1ccc(Oc2ccc(I)cc2)cc1Cl` (stereo not shown) [I-172], the LogP is reported as 3.17^[a]. For `CC(O)(Cn1cncc1F)c1cnc(Oc2ccc(C(F)(F)F)cc2)cc1Br` (stereo not shown) [I-243], the LogP was 2.36^[a]. For `N#Cc1cncn1CC(O)(CC1CC1)c1cc(F)cc(Cl)c1` (stereo not shown) [I-497], the LogP was 2.54^[a]. In the case of `OC(Cn1cncc1Br)c1ccc(Oc2ccc(Cl)cc2)cc1C(F)(F)F` (stereo not shown) [I-29], the LogP is reported as 2.84^[a]. In the case of `CC(O)(Cn1cncc1C#N)c1ccc(Oc2ccc(C(F)(F)F)nc2)nc1C(F)(F)F` (stereo not shown) [I-294], the LogP is reported as 2.76^[a]. With `CC(=O)c1cncn1CC(C)(O)c1ccc(Oc2ccc(Br)cc2)cc1F` (stereo not shown) [I-190] the LogP was 2.75^[a]. For `CCC(O)(Cn1cncc1C#N)c1ccc(Cl)cc1` (stereo not shown) [I-222], the LogP was 2.32^[a]. For `N#Cc1cncn1CC(O)(c1ccc(F)c(F)c1)C1(F)CC1` (stereo not shown) [I-445], the LogP was 2.17^[a]. For `N#Cc1cncn1CC(O)(c1cc(F)cc(Cl)c1Cl)C1(F)CC1` (stereo not shown) [I-568], the LogP was 2.49^[a]. With `OC(Cn1cncc1Cl)c1ccc(Oc2ccc(Br)nc2)cc1Cl` (stereo not shown) [I-77] the LogP was 1.92^[a]. With `N#Cc1cncn1CC(O)c1ccccc1Cl` (stereo not shown) [I-138] the LogP was 1.57^[a]. With `CC(C)(C)c1ccc(C(O)(Cn2cncc2C#N)C2(Cl)CC2)cc1` (stereo not shown) [I-247] the LogP was 3.29^[a]. For `CC(C)(C)C(O)(Cn1cncc1Cl)c1cc2cc(OC(F)(F)F)ccc2o1` (stereo not shown) [I-215], the LogP was 2.75^[a]. In the case of `CC(O)(Cn1cncc1Cl)c1ccc(Oc2ccc(Br)cc2)cc1Br` (stereo not shown) [I-185], the LogP is reported as 3.06^[a]. For `N#Cc1cncn1CC(O)(CC1CC1)c1cc(F)cc(F)c1` (stereo not shown) [I-502], the LogP was 2.29^[a]. For `N#Cc1cncn1CC(O)(c1c(F)cc(F)cc1Cl)C1(Cl)CC1` (stereo not shown) [I-563], the LogP was 2.45^[a]. With `CC(=O)c1cncn1CC(C)(O)c1cnc(Oc2ccc(Cl)cc2)cc1C(F)(F)F` (stereo not shown) [I-250] the LogP was 2.78^[a]. With `N#Cc1cncn1CC(O)(CCCC1CCCCC1)C1CC1` (stereo not shown) [I-661] the LogP was 3.83^[a]. In the case of `N#Cc1cncn1CC(O)(C#CC1CCCC1)C1(F)CC1` (stereo not shown) [I-453], the LogP is reported as 2.30^[a]. For `C[Si](C)(C)CC(O)(Cn1cncc1C#N)c1ccc(Cl)cc1` (stereo not shown) [I-224], the LogP was 3.35^[a]. For `N#Cc1cncn1CC(O)(c1ccc(F)cc1C(F)(F)F)C1(F)CC1` (stereo not shown) [I-382], the LogP was 2.46^[a]. In the case of `C[Si](C)(C#CC(O)(Cn1cncc1C#N)C1(Cl)CC1)c1ccccc1` (stereo not shown) [I-594], the LogP is reported as 3.31^[a]. In the case of `N#Cc1cncn1CC(O)(CC1CC1)c1cc(Cl)c(Cl)c(Cl)c1` (stereo not shown) [I-529], the LogP is reported as 3.22^[a]. In the case of `N#Cc1cncn1CC(O)(c1cc(F)c(F)c(Br)c1)C1(F)CC1` (stereo not shown) [I-471], the LogP is reported as 2.58^[a]. In the case of `CC(O)(Cn1cncc1F)c1ccc(Oc2ccc(C(F)(F)F)nc2)nc1C(F)(F)F` (stereo not shown) [I-290], the LogP is reported as 2.06^[a]. For `CC(O)(Cn1cncc1C#N)c1ccc(Oc2ccc(Cl)cc2)cc1Br` (stereo not shown) [I-216], the LogP was 3.50^[a]. For `N#Cc1cncn1CC(O)(c1ccc(Cl)cc1Br)C1(Cl)CC1` (stereo not shown) [I-384], the LogP was 2.78^[a]. With `OC(CCC1CCCC1)(Cn1cncc1C(F)(F)F)C1(Cl)CC1` (stereo not shown) [I-674] the LogP was 4.10^[a]. With `CC1(C(O)(Cn2cncc2C#N)c2ccc(F)cc2F)CC1` (stereo not shown) [I-440] the LogP was 2.37^[a]. In the case of `N#Cc1cncn1CC(O)(c1c(F)cc(F)cc1F)C1(F)CC1` (stereo not shown) [I-518], the LogP is reported as 2.07^[a]. With `OC(Cn1cncc1F)c1ccc(Oc2ccc(Cl)cc2)nc1C(F)(F)F` (stereo not shown) [I-123] the LogP was 2.25^[a]. In the case of `N#Cc1cncn1CC(O)(c1c(F)ccc(F)c1Cl)C1(F)CC1` (stereo not shown) [I-567], the LogP is reported as 2.15^[a]. For `CCOC(Cn1cncc1C#N)c1ccc(Oc2ccc(Cl)cc2)cc1Br` (stereo not shown) [I-62], the LogP was 4.51^[a]. In the case of `CC(C)C(O)(Cn1cncc1C#N)C1(F)CC1` (stereo not shown) [I-380], the LogP is reported as 1.78^[a]. For `C#Cc1ccc(C(O)(Cn2cncc2C#N)C2(Cl)CC2)c(Cl)c1` (stereo not shown) [I-370], the LogP was 2.52^[a].
